Results taken from ChEMBL document CHEMBL4219262, “Design, synthesis and evaluation of benzoheterocycle analogues as potent antifungal agents targeting CYP51” (Bioorg Med Chem, 2018).
Values after ≈ are worked out from the molar mass of the structure shown.

Columns and labels:
Candida albicans [1] = test: Antifungal activity against Candida albicans ATCC SC5314 after 24 hrs by serial dilution method; assay type: functional; conditions: SC5314, 24 h
Candida albicans [2] = test: Antifungal activity against Candida albicans CPCC 400523 after 24 hrs by serial dilution method; assay type: functional; conditions: CPCC 400523, 24 h
Cryptococcus neoformans = test: Antifungal activity against Cryptococcus neoformans cgmcc 2.3161 after 72 hrs by serial dilution method; assay type: functional; conditions: cgmcc 2.3161, 72 h
Candida tropicalis = test: Antifungal activity against Candida tropicalis cgmcc 2.3739 after 24 hrs by serial dilution method; assay type: functional; conditions: cgmcc 2.3739, 24 h
Aspergillus fumigatus = test: Antifungal activity against Aspergillus fumigatus cgmcc 3.7795 after 7 days by serial dilution method; assay type: functional; conditions: cgmcc 3.7795, 168 h
Candida albicans [3] = test: Antifungal activity against fluconazole-resistant Candida albicans strain 103 after 24 hrs by serial dilution method; assay type: functional; conditions: Candida albicans, 103, 24 h
Candida albicans [4] = test: Antifungal activity against fluconazole-resistant Candida albicans strain 100 after 24 hrs by serial dilution method; assay type: functional; conditions: Candida albicans, 100, 24 h
[5] = Stability in human plasma assessed as parent compound remaining at 2 uM after 60 mins by LC-MS/MS analysis; assay type: ADME, cell-free; conditions: read-out: Stability
[6] = Stability in human plasma assessed as parent compound remaining at 2 uM after 120 mins by LC-MS/MS analysis; assay type: ADME, cell-free; conditions: read-out: Stability

MIC (Candida albicans [1])	MIC (Candida albicans [2])	MIC (Cryptococcus neoformans)	MIC (Candida tropicalis)	MIC (Aspergillus fumigatus)	SMILES	MIC (Candida albicans [3])	MIC (Candida albicans [4])	remaining at 1 h, 2 µM [5]	remaining at 2 h, 2 µM [6]
32 µg/mL (≈ 89.3 µM)	32 µg/mL (≈ 89.3 µM)	8 µg/mL (≈ 22.3 µM)	0.5 µg/mL (≈ 1.4 µM)	64 µg/mL (≈ 179 µM)	CC(C)OC(=O)[C@H](Cn1ccnc1)NC(=O)c1cc2ccc(F)cc2[nH]1	–	–	–	–
8 µg/mL (≈ 21.7 µM)	8 µg/mL (≈ 21.7 µM)	4 µg/mL (≈ 10.9 µM)	1 µg/mL (≈ 2.71 µM)	64 µg/mL (≈ 174 µM)	CC(C)COC(=O)[C@H](Cn1ccnc1)NC(=O)c1cc2ccccc2n1C	–	–	–	–
64 µg/mL (≈ 178 µM)	64 µg/mL (≈ 178 µM)	64 µg/mL (≈ 178 µM)	16 µg/mL (≈ 44.5 µM)	64 µg/mL (≈ 178 µM)	CC(C)COC(=O)[C@H](Cn1ccnc1)NC(=O)c1ccc2c(c1)OCO2	–	–	–	–
0.25 µg/mL (≈ 0.589 µM)	4 µg/mL (≈ 9.42 µM)	64 µg/mL (≈ 151 µM)	8 µg/mL (≈ 18.8 µM)	64 µg/mL (≈ 151 µM)	COc1ccc2c(c1)CCc1c(C(=O)N[C@@H](Cn3ccnc3)C(=O)OC(C)C)noc1-2	–	–	–	–
64 µg/mL (≈ 185 µM)	64 µg/mL (≈ 185 µM)	64 µg/mL (≈ 185 µM)	32 µg/mL (≈ 92.7 µM)	64 µg/mL (≈ 185 µM)	CC(C)OC(=O)[C@H](Cn1ccnc1)NC(=O)c1ccc2c(c1)OCO2	–	–	–	–
64 µg/mL (≈ 182 µM)	64 µg/mL (≈ 182 µM)	64 µg/mL (≈ 182 µM)	32 µg/mL (≈ 90.8 µM)	64 µg/mL (≈ 182 µM)	CC(C)OC(=O)[C@H](Cn1ccnc1)NC(=O)c1cnc2ccccc2c1	–	–	–	–
64 µg/mL (≈ 180 µM)	64 µg/mL (≈ 180 µM)	64 µg/mL (≈ 180 µM)	64 µg/mL (≈ 180 µM)	64 µg/mL (≈ 180 µM)	Cc1nc2ccc(C(=O)N[C@@H](Cn3ccnc3)C(=O)OC(C)C)cc2o1	–	–	–	–
8 µg/mL (≈ 22.6 µM)	8 µg/mL (≈ 22.6 µM)	64 µg/mL (≈ 181 µM)	0.5 µg/mL (≈ 1.41 µM)	64 µg/mL (≈ 181 µM)	CC(C)OC(=O)[C@H](Cn1ccnc1)NC(=O)c1cc2ccccc2n1C	–	–	–	–
64 µg/mL (≈ 187 µM)	64 µg/mL (≈ 187 µM)	64 µg/mL (≈ 187 µM)	64 µg/mL (≈ 187 µM)	64 µg/mL (≈ 187 µM)	CC(C)OC(=O)[C@H](Cn1ccnc1)NC(=O)c1nc2ccccc2[nH]1	–	–	–	–
64 µg/mL (≈ 187 µM)	64 µg/mL (≈ 187 µM)	64 µg/mL (≈ 187 µM)	32 µg/mL (≈ 93.5 µM)	64 µg/mL (≈ 187 µM)	CC(C)OC(=O)[C@H](Cn1ccnc1)NC(=O)c1ccc2ncoc2c1	–	–	–	–
16 µg/mL (≈ 39.2 µM)	2 µg/mL (≈ 4.9 µM)	64 µg/mL (≈ 157 µM)	1 µg/mL (≈ 2.45 µM)	64 µg/mL (≈ 157 µM)	CC(C)OC(=O)[C@H](Cn1ccnc1)NC(=O)c1noc2c1CCCc1ccccc1-2	–	–	–	–
0.125 µg/mL (≈ 0.286 µM)	0.5 µg/mL (≈ 1.14 µM)	2 µg/mL (≈ 4.57 µM)	1 µg/mL (≈ 2.29 µM)	> 64 µg/mL	CC(C)OC(=O)[C@H](Cn1ccnc1)NC(=O)c1nc2ccc(Br)cc2s1	–	–	–	–
64 µg/mL (≈ 175 µM)	64 µg/mL (≈ 175 µM)	64 µg/mL (≈ 175 µM)	32 µg/mL (≈ 87.3 µM)	64 µg/mL (≈ 175 µM)	CC(C)COC(=O)[C@H](Cn1ccnc1)NC(=O)c1cnc2ccccc2c1	–	–	–	–
16 µg/mL (≈ 46.9 µM)	32 µg/mL (≈ 93.7 µM)	4 µg/mL (≈ 11.7 µM)	0.5 µg/mL (≈ 1.46 µM)	32 µg/mL (≈ 93.7 µM)	CC(C)OC(=O)[C@H](Cn1ccnc1)NC(=O)c1cc2ccccc2o1	–	–	–	–
0.5 µg/mL (≈ 1.35 µM)	1 µg/mL (≈ 2.69 µM)	1 µg/mL (≈ 2.69 µM)	0.25 µg/mL (≈ 0.673 µM)	8 µg/mL (≈ 21.5 µM)	CC(C)COC(=O)[C@H](Cn1ccnc1)NC(=O)c1cc2ccccc2s1	–	–	–	–
0.25 µg/mL (≈ 0.589 µM)	16 µg/mL (≈ 37.7 µM)	64 µg/mL (≈ 151 µM)	2 µg/mL (≈ 4.71 µM)	64 µg/mL (≈ 151 µM)	COc1ccc2c(c1)-c1onc(C(=O)N[C@@H](Cn3ccnc3)C(=O)OC(C)C)c1CC2	–	–	–	–
64 µg/mL (≈ 181 µM)	64 µg/mL (≈ 181 µM)	64 µg/mL (≈ 181 µM)	16 µg/mL (≈ 45.3 µM)	64 µg/mL (≈ 181 µM)	CC(C)OC(=O)[C@H](Cn1ccnc1)NC(=O)c1cnc2ccccc2n1	–	–	–	–
8 µg/mL (≈ 22.5 µM)	8 µg/mL (≈ 22.5 µM)	4 µg/mL (≈ 11.3 µM)	0.25 µg/mL (≈ 0.703 µM)	32 µg/mL (≈ 90 µM)	CC(C)COC(=O)[C@H](Cn1ccnc1)NC(=O)c1cc2ccccc2o1	–	–	–	–

SMILES	MIC (Candida albicans [1])	MIC (Candida albicans [2])	MIC (Cryptococcus neoformans)	MIC (Candida tropicalis)	MIC (Aspergillus fumigatus)	MIC (Candida albicans [3])	MIC (Candida albicans [4])	remaining at 1 h, 2 µM [5]	remaining at 2 h, 2 µM [6]
CC(C)COC(=O)[C@H](Cn1ccnc1)NC(=O)c1noc2c1ccc1ccccc12	0.125 µg/mL (≈ 0.308 µM)	0.25 µg/mL (≈ 0.615 µM)	0.125 µg/mL (≈ 0.308 µM)	0.125 µg/mL (≈ 0.308 µM)	16 µg/mL (≈ 39.4 µM)	2 µg/mL (≈ 4.92 µM)	2 µg/mL (≈ 4.92 µM)	–	–
CC(C)COC(=O)[C@H](Cn1ccnc1)NC(=O)c1noc2c1CCc1ccccc1-2	0.125 µg/mL (≈ 0.306 µM)	0.5 µg/mL (≈ 1.22 µM)	4 µg/mL (≈ 9.79 µM)	0.125 µg/mL (≈ 0.306 µM)	8 µg/mL (≈ 19.6 µM)	0.5 µg/mL (≈ 1.22 µM)	1 µg/mL (≈ 2.45 µM)	–	–
CC(C)OC(=O)[C@H](Cn1ccnc1)NC(=O)c1noc2c1ccc1ccccc12	0.125 µg/mL (≈ 0.319 µM)	0.25 µg/mL (≈ 0.637 µM)	0.25 µg/mL (≈ 0.637 µM)	0.125 µg/mL (≈ 0.319 µM)	4 µg/mL (≈ 10.2 µM)	1 µg/mL (≈ 2.55 µM)	2 µg/mL (≈ 5.1 µM)	95.8%	91.7%
